Our source for the CC50, EC50 and IC50 values is PMC10039358, “The 8-bromobaicalein inhibited the replication of dengue, and Zika viruses and targeted the dengue polymerase” (Scientific Reports, 2023).

For orientation: EC50 means the concentration at which the effect is half-maximal. As usually defined, the IC50 is the concentration at which inhibition is half-maximal.

Data set [1] can be described thus: in vitro. The note with it: rhesus monkey. The text has this: (§1) LLC/MK2 (ATCC® CCL-7), HEK-293 (ATCC® CRL-1573), HepG2 (ATCC® HB-8065), THP-1 (ATCC® TIB-202), Huh-7, RD (ATCC® CCL-136™), and C6/36 (ATCC® CRL-1660) cell lines were propagated and maintained as previously described[16],[21],[40],[53]. Reference DENV1 (16007), DENV2 (NGC, 16681), DENV3 (16562), DENV4 (1036), ZIKV (SV0127/14), and EV-A71 (BRCR) were propagated in Vero, C6/36, and R.D. cells as described[16],[21] Phumee et al.[53]. Cytotoxic concentration (CC50) of LLC/MK2, THP-1, HEK-293, HepG2, Huh-7, and R.D. cells were analyzed as previously described. […] Briefly, cells were seeded overnight and infected with each virus at the multiplicity of infection (M.O.I.) of 0.1 for 1 h. The compound was added during and after infection, and cells were incubated for 72 h. Supernatants were collected for 96-well[55] or a traditional 24-well plaque titration.
Supplementary Fig. S2. […] Briefly, cells were seeded overnight before the compound addition.

The test system of data set [2] is dengue, Zika, and Japanese encephalitis viruses. The note with it: depending the assay and detection systems ref 32, 47, 48; cited from earlier work.
Data set [3] has as its system Vero. As to conditions: cited from earlier work.
Data set [4] relates to A549. As to conditions: cited from earlier work.
Data set [5] addresses T1, DENV2 NS5/RdRp (Dengue virus type 2, UniProt P29990).
T1 construct: The 73.2 kDa of non-tagged NS5/RdRp was successfully purified by size exclusion chromatography; His-tag (N, cleaved yes); made in house
Description: In vitro RdRp assay (SYTO-9 fluorescence). In kind it is biochemical, DENV-2. As for the experimental part:
The production of DENV2 RdRp was performed according to a described protocol. In brief, N-terminally Histidine-tagged DENV2 RdRp (NHis-RdRp) was expressed with 200 µM IPTG (isopropyl-b-D-thiogalactopyranoside) induction, at 37 °C for 4 h. Cell disruption and clarification were sequentially done via sonication and centrifugation at 15,000 rpm for 1 h at 4 °C. His-tagged RdRp was purified by immobilized metal affinity chromatography (IMAC) with 175 mM imidazole elution. His-tag was removed by adding 2 units thrombin per 1 mg protein during dialysis for 2 days at 4 °C. The non-tagged RdRp was further purified by size exclusion chromatography. […]
The RdRp assay for inhibition testing was adapted from the previous publications[46],[71]. […] The nascent double-stranded RNA was quantitated by mixing 10 µl of the reaction mixture with 10 µl of 5 µM SYTO-9 dye in Tris–EDTA buffer and incubating at room temperature for 5 min. Fluorescence was measured at excitation and emission wavelengths of 485 nm and 520 nm, respectively, by using EnSight Multimode Plate Reader (Perkin Elmer, Waltham, MA, USA). The IC50 value was calculated from three independent experiments by using PRISM version 9 (GraphPad Software, Inc., La Jolla, CA, USA).

For data set [6], the system named is DENV3 (16562). Description: Antiviral efficacy (EC50), plaque titration. The note with it: LLC-MK2, 72 h. In kind it is cell-based.
Excerpt: as §1

The test system of data set [7] is DENV1 (16008). As to the kind of experiment: Antiviral efficacy (EC50), plaque titration. In kind it is cell-based. The note with it: LLC-MK2, 72 h.
Excerpt: as §1

Data set [8] concerns DENV2 (NGC). As to the kind of experiment: Antiviral efficacy (EC50), plaque titration. In kind it is cell-based. The note with it: Dengue virus, DENV2, LLC-MK2, 72 h.
Excerpt: as §1

Data set [9] deals with DENV4 (1036). Description: Antiviral efficacy (EC50), plaque titration. As to conditions: LLC-MK2, 72 h. In kind it is cell-based.
Excerpt: as §1

For data set [10], the system named is ZIKV (SV0127/14). Description: Antiviral efficacy (EC50), plaque titration. It is filed as cell-based. The note with it: Zika virus; ZIKV (SV0127/14), LLC/MK2 cells, M.O.I. 0.1, 72 h.
Excerpt: as §1

For data set [11], the system named is HaCat cells. The note with it: cited from earlier work.

The structures appear in SMILES notation. Some results are limits rather than exact numbers.

With `O=c1cc(-c2ccccc2)oc2cc(O)c(O)c(O)c12` [baicalein, 5,6,7-trihydroxyflavone], in [1], the CC50 at 48 h was > 250000 nM. For the same compound, the EC50 in data set [2] was 4 to 24000 nM; in data set [6] it was 1190 ± 660 nM; in [7] it was 1400 ± 380 nM; in data set [8] it was 4040 ± 1370 nM; in [9], 930 ± 130 nM; in data set [10] it was 1580 ± 420 nM. Moreover, the CC50 is > 100000 nM in data set [3], > 50000 nM in data set [4] and > 200000 nM in data set [11]. The compound also displayed an IC50 in [5] of 242000 nM.
